Laboratory results: patent US20240308998A1, “PYRROLOPYRIDONE DERIVATIVES USEFUL IN THE TREATMENT OF CANCER” (Tay Therapeutics Limited, priority 2021, published 2024)

Experiments:
BRD4 BD2 = biological target: T1, BRD4 BD2 (Homo sapiens, UniProt O60885); assay: NanoBRET bromodomain assay, BRD4 BD2; format: cell-based; details: for Fold selectivity BRD4 BD1/BD2: IC50 BD1/IC50 BD2; for IC50: NanoBRET, HEK293 cells transfected with NanoLuc-BRD4-BD2
T1 construct: HEK293 cells were transfected using NanoLuc-BRD4-BD1 or NanoLuc-BRD4-BD2 fusion vectors; host or cells: HEK293
Method: (§1) HEK293 cells were transfected using NanoLuc-BRD4-BD1 or NanoLuc-BRD4-BD2 fusion vectors and incubated at 37° C. in an atmosphere of 5% CO2 for 20-24 hours. The transfected cells were then dispensed into 96-well plates using 90 μl cell suspension per well containing 2×10^5 cells/ml in Opti-MEM and 1x final concentration of tracer. 90 μl per well of cell suspension without tracer was also dispensed into at least 3 wells as “No tracer control samples” for background correction. Serially diluted test compounds were prepared at 1000× concentration in DMSO and further diluted to 10× concentration in Opti-MEM. 10 μl per well of the serially diluted 10× test compound was added to the 96-well plates containing cells with 1x tracer. Plates were then incubated at 37° C.+5% C02 incubator for 2 hours. Immediately prior to BRET measurements, a 3x solution consisting of 1:166 dilution of Nano-Glo® Substrate plus a 1:500 dilution of Extracellular NanoLuc Inhibitor in Opti-MEM was prepared and 50 μl per well was added to the cells. Donor emission (450 nm) and acceptor emission (610 nm) were measured using PHERAstar (BMG LabTech). For data analysis, the raw BRET ratio was generated and converted to milliBRET units with background correction using the formula: [(Acceptorsample/Donorsample)−(Acceptorno tracer control/Donorno tracer control)]×1000. The mBU data was plotted as a function of compound concentration and IC50s for BRET assay were determined by nonlinear regression analysis of concentration response curves using the GraphPad Prism software.
Fold Selectivity Calculated (IC50 BD1/IC50 BD2).

[1] = Balb/c mouse pharmacokinetics after oral (PO) dosing; format: in vivo; details: male, plasma
Method: Compounds were formulated in 5% DMSO, 40% PEG-400, 55% Milli-Q water at a concentration of 0.5 mg/mL for 5 mg/kg and 3 mg/mL for 30 mg/kg PO dosing. […] Blood was sampled at various timepoints and plasma isolated. 10 μL of plasma with 5 μL of blank Balb/c mouse plasma were added to 200 μL of acetonitrile containing IS mixture. The samples were vortexed for 30 s. After centrifugation at 4 degree Celsius, 3900 rpm for 15 min, the supernatant was diluted 3 times with water. 20 μL of diluted supernatant was injected into the LC/MS/MS system for quantitative analysis and concentration of analyte determined by comparison with matrix matched standard curve. WinNonlin (Phoenix™, version 8.3) or other similar software was used for pharmacokinetic calculations.

BRD4 BD1 = biological target: T2, BRD4 BD1 (Homo sapiens, UniProt O60885); assay: NanoBRET bromodomain assay, BRD4 BD1; format: cell-based; details: HEK293 cells transfected with NanoLuc-BRD4-BD1
T2 construct: HEK293 cells were transfected using NanoLuc-BRD4-BD1 or NanoLuc-BRD4-BD2 fusion vectors; host or cells: HEK293
Method: as §1

[2] = Intrinsic clearance in rat liver microsomes; format: in vitro ADME; details: pH 7.4, NADPH, read-out: Rat Microsomal Stability T½
Method: A 50 mM stock solution (in DMSO) was prepared for the compound. From the stock solution, a working solution of 0.5 mM was prepared by diluting the compound in DMSO. This concentration of working solution was prepared considering a final concentration of 1 uM with 0.1% DMSO. The compound (1 uL of working solution) was spiked in PBS with pH 7.4 (22 uL) at a concentration of 1 uM. Subsequently, 110 uL of 10 mM NADPH was added (as a co-factor). The sample was incubated at 37° C. for 15 min. Following this, pre-warmed rat liver microsomes (27.5 uL; final protein conc. 0.5 mg/mL) were added. The samples were then incubated at 37° C. Aliquots of samples were withdrawn at 0, 5, 15, 30, 45 and 60 min. The reaction was stopped by using chilled acetonitrile containing internal standard. The samples were centrifuged and the supernatants analysed by LC-MS/MS. The percent compound remaining at each time point was calculated with respect to that of the 0 min sample. The data were then analysed to calculate half-life. Note that control samples were run without NADPH and blank samples were prepared using DMSO without the test Compound.

SMILES | Fold selectivity BRD4 BD1/BD2 (BRD4 BD2) | IC50 (BRD4 BD2) [µM] | Cmax ([1]; 5 mg/kg, Casette) [ng/mL] | bioavailability ([1]; 5 mg/kg, Casette) [%] | IC50 (BRD4 BD1) [µM] | Cmax ([1]; 30 mg/kg, Individual) [ng/mL] | bioavailability ([1]; 30 mg/kg, Individual) [%] | half-life at 1 uM [2] [h]
Cc1cccc(C)c1Oc1cn(C)c(=O)cc1-c1cn(C)c(=O)c2[nH]c(-c3cccc(F)c3F)cc12 [Example 50, 4-[2-(2,3-difluorophenyl)-6-methyl-7-oxo-1H-pyrrolo[2,3-c]pyridin-4-yl]-5-(2,6-dimethylphenoxy)-1-methylpyridin-2-one] | xxx (Fold >200) | ≤ 0.05 | 293 | 73 | > 1 | – | – | –
Cc1cccc(C)c1Oc1cn(C)c(=O)cc1-c1cn(C)c(=O)c2[nH]c(-c3ccc(=O)n(C)c3)cc12 [Example 51, 5-(2,6-dimethylphenoxy)-1-methyl-4-[6-methyl-2-(1-methyl-6-oxopyridin-3-yl)-7-oxo-1H-pyrrolo[2,3-c]pyridin-4-yl]pyridin-2-one] | xx (Fold >50 and ≤200) | 0.05 to 0.2 | 24.4 | 6.83 | > 1 | – | – | –
Cc1cccc(C)c1Oc1cn(C)c(=O)cc1-c1cn(C)c(=O)c2[nH]c(-c3ccccc3)cc12 [Example 8, 4-(5-(2,6-dimethylphenoxy)-1-methyl-2-oxo-1,2-dihydropyridin-4-yl)-6-methyl-2-phenyl-1,6-dihydro-7H-pyrrolo[2,3-c] pyridin-7-one] | xx (Fold >50 and ≤200) | 0.05 to 0.2 | – | – | > 1 | – | – | > 1
Cc1ccc(F)cc1-c1cc2c(-c3cc(=O)n(C)cc3Oc3c(C)cccc3C)cn(C)c(=O)c2[nH]1 [Example 18, 4-(5-(2,6-dimethylphenoxy)-1-methyl-2-oxo-1,2-dihydropyridin-4-yl)-2-(5-fluoro-2-methylphenyl)-6-methyl-1,6-dihydro-7H-pyrrolo[2,3-c] pyridin-7-one] | xx (Fold >50 and ≤200) | 0.05 to 0.2 | – | – | > 1 | – | – | > 1
Cc1cccc(C)c1Oc1cn(C)c(=O)cc1-c1cn(C)c(=O)c2[nH]c(-c3ccc(F)cc3)cc12 [Example 25, 4-(5-(2,6-dimethylphenoxy)-1-methyl-2-oxo-1,2-dihydropyridin-4-yl)-2-(4-fluorophenyl)-6-methyl-1,6-dihydro-7H-pyrrolo[2,3-c] pyridin-7-one] | xxx (Fold >200) | ≤ 0.05 | – | – | > 1 | – | – | > 1
Cc1ccc(F)c(-c2cc3c(-c4cc(=O)n(C)cc4Oc4c(C)cccc4C)cn(C)c(=O)c3[nH]2)c1 [Example 16, 4-(5-(2,6-dimethylphenoxy)-1-methyl-2-oxo-1,2-dihydropyridin-4-yl)-2-(2-fluoro-5-methylphenyl)-6-methyl-1,6-dihydro-7H-pyrrolo[2,3-c] pyridin-7-one] | xxx (Fold >200) | ≤ 0.05 | – | – | > 1 | – | – | > 1
Cc1cccc(C)c1Oc1cn(C)c(=O)cc1-c1cn(C)c(=O)c2[nH]c(-c3ccc(S(C)(=O)=O)cc3)cc12 [Example 26, 4-(5-(2,6-dimethylphenoxy)-1-methyl-2-oxo-1,2-dihydropyridin-4-yl)-6-methyl-2-(4-(methylsulfonyl)phenyl)-1,6-dihydro-7H-pyrrolo[2,3-c] pyridin-7-one] | xx (Fold >50 and ≤200) | ≤ 0.05 | – | – | > 1 | – | – | > 1
Cc1cccc(C)c1Oc1cn(C)c(=O)cc1-c1cn(C)c(=O)c2[nH]c(-c3cnn[nH]3)cc12 [Example 30, 4-(5-(2,6-dimethylphenoxy)-1-methyl-2-oxo-1,2-dihydropyridin-4-yl)-6-methyl-2-(1H-1,2,3-triazol-5-yl)-1,6-dihydro-7H-pyrrolo[2,3-c] pyridin-7-one] | xx (Fold >50 and ≤200) | 0.05 to 0.2 | – | – | > 1 | – | – | > 1
Cc1ccc(-c2cc3c(-c4cc(=O)n(C)cc4Oc4c(C)cccc4C)cn(C)c(=O)c3[nH]2)cc1 [Example 23, 4-(5-(2,6-dimethylphenoxy)-1-methyl-2-oxo-1,2-dihydropyridin-4-yl)-6-methyl-2-(p-tolyl)-1,6-dihydro-7H-pyrrolo[2,3-c] pyridin-7-one] | x (Fold >2 and ≤50) | 0.2 to 1 | – | – | > 1 | – | – | > 1
Cc1cccc(C)c1Oc1cn(C)c(=O)cc1-c1cn(C)c(=O)c2[nH]c(-c3ccc(C(N)=O)cc3)cc12 [Example 29, 4-(4-(5-(2,6-dimethylphenoxy)-1-methyl-2-oxo-1,2-dihydropyridin-4-yl)-6-methyl-7-oxo-6,7-dihydro-1H-pyrrolo[2,3-c]pyridin-2-yl) benzamide] | xxx (Fold >200) | ≤ 0.05 | – | – | > 1 | – | – | > 1

Continued, values first:

Fold selectivity BRD4 BD1/BD2 (BRD4 BD2) | IC50 (BRD4 BD2) [µM] | Cmax ([1]; 5 mg/kg, Casette) [ng/mL] | bioavailability ([1]; 5 mg/kg, Casette) [%] | IC50 (BRD4 BD1) [µM] | Cmax ([1]; 30 mg/kg, Individual) [ng/mL] | bioavailability ([1]; 30 mg/kg, Individual) [%] | half-life at 1 uM [2] [h] | SMILES
xxx (Fold >200) | ≤ 0.05 | 622 | 51.2 | > 1 | – | – | – | CC(C)n1cc(-c2cc3c(-c4cc(=O)n(C)cc4-c4ccccc4)cn(C)c(=O)c3[nH]2)cn1 [Example 61, 4-[2-(1-isopropylpyrazol-4-yl)-6-methyl-7-oxo-1H-pyrrolo[2,3-c]pyridin-4-yl]-1-methyl-5-phenylpyridin-2-one]
xxx (Fold >200) | ≤ 0.05 | 1290 | 88.7 | 0.05 to 0.5 | – | – | – | Cc1cc(-c2cc3c(-c4cc(=O)n(C)cc4-c4ccccc4)cn(C)c(=O)c3[nH]2)cc(C)n1 [Example 62, 4-[2-(2,6-dimethylpyridin-4-yl)-6-methyl-7-oxo-1H-pyrrolo[2,3-c]pyridin-4-yl]-1-methyl-5-phenylpyridin-2-one]
xxx (Fold >200) | ≤ 0.05 | 1590 | 86.5 | > 1 | – | – | – | Cn1cc(-c2ccccc2)c(-c2cn(C)c(=O)c3[nH]c(-c4ccccc4)cc23)cc1=O [Example 63, 1-methyl-4-{6-methyl-7-oxo-2-phenyl-1H-pyrrolo[2,3-c]pyridin-4-yl}-5-phenylpyridin-2-one]
xxx (Fold >200) | ≤ 0.05 | – | – | > 1 | 5460 | 100 | – | Cc1cc(-c2cc3c(-c4cc(=O)n(C5CC5)cc4Oc4c(C)cccc4C)cn(C)c(=O)c3[nH]2)cc(C)n1 [Example 59, 1-cyclopropyl-5-(2,6-dimethylphenoxy)-4-[2-(2,6-dimethylpyridin-4-yl)-6-methyl-7-oxo-1H-pyrrolo[2,3-c]pyridin-4-yl]pyridin-2-one]
xxx (Fold >200) | ≤ 0.05 | 631 | 59.9 | > 1 | – | – | – | Cc1cc(-c2cc3c(-c4cc(=O)n(C)cc4-c4ccccc4)cn(C)c(=O)c3[nH]2)n(C)n1 [Example 60, 2-(1,3-dimethyl-1H-pyrazol-5-yl)-6-methyl-4-(1-methyl-2-oxo-5-phenyl-1,2-dihydropyridin-4-yl)-1,6-dihydro-7H-pyrrolo[2,3-c] pyridin-7-one]
xx (Fold >50 and ≤200) | ≤ 0.05 | – | – | 0.5 to 1 | 1010 | 12.5 | – | Cc1cccc(C)c1Oc1cn(C)c(=O)cc1-c1cn(C)c(=O)c2[nH]c(-c3cn(C4COC4)nc3C)cc12 [Example 64, 4-(5-(2,6-dimethylphenoxy)-1-methyl-2-oxo-1,2-dihydropyridin-4-yl)-6-methyl-2-(3-methyl-1-(oxetan-3-yl)-1H-pyrazol-4-yl)-1,6-dihydro-7H-pyrrolo[2,3-c]pyridin-7-one]
